{
  "source": "the Kinase Knowledgebase extract (Sharma et al. 2016)",
  "data": [
    {"target": "PIK3CA (UniProt P42336)", "sequence (P42336 whole entry, looked up)": "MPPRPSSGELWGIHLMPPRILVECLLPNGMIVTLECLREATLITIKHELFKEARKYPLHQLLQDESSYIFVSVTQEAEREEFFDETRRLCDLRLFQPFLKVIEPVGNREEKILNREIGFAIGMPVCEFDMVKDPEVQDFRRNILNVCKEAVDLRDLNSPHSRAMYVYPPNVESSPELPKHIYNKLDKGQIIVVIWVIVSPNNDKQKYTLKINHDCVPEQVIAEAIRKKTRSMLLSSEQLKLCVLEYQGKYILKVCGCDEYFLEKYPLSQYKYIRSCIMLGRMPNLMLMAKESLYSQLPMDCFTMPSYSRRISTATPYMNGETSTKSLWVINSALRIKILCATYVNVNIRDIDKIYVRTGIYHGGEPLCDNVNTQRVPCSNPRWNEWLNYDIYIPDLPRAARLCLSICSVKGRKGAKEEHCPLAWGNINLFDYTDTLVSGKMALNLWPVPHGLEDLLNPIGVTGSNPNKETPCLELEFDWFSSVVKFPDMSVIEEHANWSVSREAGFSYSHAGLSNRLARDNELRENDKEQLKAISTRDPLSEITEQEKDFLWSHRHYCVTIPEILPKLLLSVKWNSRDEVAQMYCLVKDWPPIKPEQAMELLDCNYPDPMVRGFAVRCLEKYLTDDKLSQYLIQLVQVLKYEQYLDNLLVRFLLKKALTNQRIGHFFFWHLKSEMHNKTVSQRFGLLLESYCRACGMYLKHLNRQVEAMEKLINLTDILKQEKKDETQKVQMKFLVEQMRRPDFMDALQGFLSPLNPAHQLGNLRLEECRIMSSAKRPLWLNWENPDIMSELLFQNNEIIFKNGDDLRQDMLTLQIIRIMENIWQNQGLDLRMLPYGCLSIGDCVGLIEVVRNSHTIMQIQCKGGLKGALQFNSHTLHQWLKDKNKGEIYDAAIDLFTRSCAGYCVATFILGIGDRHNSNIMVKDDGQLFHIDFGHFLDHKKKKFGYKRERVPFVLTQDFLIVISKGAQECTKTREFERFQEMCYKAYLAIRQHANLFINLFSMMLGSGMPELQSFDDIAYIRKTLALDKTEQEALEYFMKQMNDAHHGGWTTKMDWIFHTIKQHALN", "experiment": "PI3K Inhibition", "units": {"IC50": "µM"}, "values": [
      {"compound": "CO[C@H]1C[C@@H](C)CC2=C(NCCCCOc3ccc4c(=O)cc(N5CCOCC5)oc4c3)C(=O)C=C(NC(=O)C(C)=CC=C[C@@H](OC)[C@H](OC(N)=O)C(C)=C[C@H](C)[C@H]1O)C2=O", "IC50": 200},
      {"compound": "CO[C@H]1C[C@@H](C)CC2=C(NCCCC#Cc3cccc4c(=O)cc(N5CCOCC5)oc34)C(=O)C=C(NC(=O)C(C)=CC=C[C@@H](OC)[C@H](OC(N)=O)C(C)=C[C@H](C)[C@H]1O)C2=O", "IC50": 13.5},
      {"compound": "C=CCNC1=C2C[C@@H](C)C[C@H](OC)[C@H](O)[C@@H](C)C=C(C)[C@H](OC(N)=O)[C@@H](OC)C=CC=C(C)C(=O)NC(=CC1=O)C2=O", "IC50": "> 500"},
      {"compound": "CO[C@H]1C[C@@H](C)CC2=C(NCCCCCCOc3ccc4c(=O)cc(N5CCOCC5)oc4c3)C(=O)C=C(NC(=O)C(C)=CC=C[C@@H](OC)[C@H](OC(N)=O)C(C)=C[C@H](C)[C@H]1O)C2=O", "IC50": "> 500"},
      {"compound": "CO[C@H]1C[C@@H](C)CC2=C(NCCOCCOc3ccc4c(=O)cc(N5CCOCC5)oc4c3C)C(=O)C=C(NC(=O)C(C)=CC=C[C@@H](OC)[C@H](OC(N)=O)C(C)=C[C@H](C)[C@H]1O)C2=O", "IC50": 70},
      {"compound": "CO[C@H]1C[C@@H](C)CC2=C(NCC#Cc3cccc4c(=O)cc(N5CCOCC5)oc34)C(=O)C=C(NC(=O)C(C)=CC=C[C@@H](OC)[C@H](OC(N)=O)C(C)=C[C@H](C)[C@H]1O)C2=O", "IC50": 3},
      {"compound": "CO[C@H]1C[C@@H](C)CC2=C(NCCCCCOc3ccc4c(=O)cc(N5CCOCC5)oc4c3)C(=O)C=C(NC(=O)C(C)=CC=C[C@@H](OC)[C@H](OC(N)=O)C(C)=C[C@H](C)[C@H]1O)C2=O", "IC50": 310},
      {"compound": "CO[C@H]1C[C@@H](C)CC2=C(NCCOCCOc3ccc4c(=O)cc(N5CCOCC5)oc4c3)C(=O)C=C(NC(=O)C(C)=CC=C[C@@H](OC)[C@H](OC(N)=O)C(C)=C[C@H](C)[C@H]1O)C2=O", "IC50": 85},
      {"compound": "CO[C@H]1C[C@@H](C)CC2=C(NCCCOc3ccc4c(=O)cc(N5CCOCC5)oc4c3)C(=O)C=C(NC(=O)C(C)=CC=C[C@@H](OC)[C@H](OC(N)=O)C(C)=C[C@H](C)[C@H]1O)C2=O", "IC50": "> 500"},
      {"compound": "CO[C@H]1C[C@@H](C)CC2=C(NCCCCCCCCOc3ccc4c(=O)cc(N5CCOCC5)oc4c3C)C(=O)C=C(NC(=O)C(C)=CC=C[C@@H](OC)[C@H](OC(N)=O)C(C)=C[C@H](C)[C@H]1O)C2=O", "IC50": 28},
      {"compound": "CO[C@H]1C[C@@H](C)CC2=C(NCCCCCCCOc3ccc4c(=O)cc(N5CCOCC5)oc4c3C)C(=O)C=C(NC(=O)C(C)=CC=C[C@@H](OC)[C@H](OC(N)=O)C(C)=C[C@H](C)[C@H]1O)C2=O", "IC50": 5}
    ]}
  ]
}
